Assay results: US20140194473A1, “IMIDAZOLE FUNGICIDES” (E I Du Pont De Nemours And Company, priority 2013, published 2014)

Experiments:
Format in all cases: in vivo
Botrytis cinerea = test: Test A: tomato Botrytis, preventive spray on tomato seedlings; details: 40 ppm test suspension sprayed to run-off on tomato seedlings, inoculated the following day; 100 = 100% disease control, 0 = no control; triplicate, averaged
Procedure: (§1) General protocol for preparing test suspensions for Tests A-G: the test compounds were first dissolved in acetone in an amount equal to 3% of the final volume and then suspended at the desired concentration (in ppm) in acetone and purified water (50/50 mix by volume) containing 250 ppm of the surfactant Trem® 014 (polyhydric alcohol esters). The resulting test suspensions were then used in Tests A-G. Each test was conducted in triplicate, and the results were averaged. Spraying a 40 ppm test suspension to the point of run-off on the test plants was the equivalent of a rate of about 160 g/ha. Unless otherwise indicated, the rating values indicate a 40 ppm test suspension was used.
The test suspension was sprayed to the point of run-off on tomato seedlings. The following day the seedlings were inoculated with a spore suspension of Botrytis cinerea (the causal agent of tomato Botrytis) and incubated in saturated atmosphere at 20° C. for 48 h, and then moved to a growth chamber at 24° C. for 3 additional days, after which time visual disease ratings were made.
(§2) Results for Tests A-G are given in Table A. In the Table, a rating of 100 indicates 100% disease control and a rating of 0 indicates no disease control (relative to the controls). A hyphen (-) indicates no test results.

Alternaria solani = test: Test B: tomato early blight, preventive spray on tomato seedlings; details: 40 ppm test suspension sprayed to run-off on tomato seedlings, inoculated the following day; 100 = 100% disease control, 0 = no control; triplicate, averaged
Procedure: as §1
The test suspension was sprayed to the point of run-off on tomato seedlings. The following day the seedlings were inoculated with a spore suspension of Alternaria solani (the causal agent of tomato early blight) and incubated in a saturated atmosphere at 27° C. for 48 h, and then moved to a growth chamber at 20° C. for 5 days, after which time visual disease ratings were made.
as §2

Septoria nodorum = test: Test C: Septoria glume blotch, preventive spray on wheat seedlings; details: 40 ppm test suspension sprayed to run-off on wheat seedlings, inoculated the following day; 100 = 100% disease control, 0 = no control; triplicate, averaged
Procedure: as §1
(§3) The test suspension was sprayed to the point of run-off on wheat seedlings. The following day the seedlings were inoculated with a spore suspension of Septoria nodorum (the causal agent of Septoria glume blotch) and incubated in a saturated atmosphere at 24° C. for 48 h, and then moved to a growth chamber at 20° C. for 9 days, after which time visual disease ratings were made.
as §2

Septoria tritici = test: Test D: wheat leaf blotch, preventive spray on wheat seedlings; details: 40 ppm test suspension sprayed to run-off on wheat seedlings, inoculated the following day; 100 = 100% disease control, 0 = no control; triplicate, averaged
Procedure: as §1
as §3, with “tritici” for “nodorum”, “wheat leaf” for “Septoria glume”, “in” for “in a”, “h.” for “h,”, “then the seedlings were” for “then”, “19 additional” for “9”
as §2

[1] = test system: Puccinia recondite f. sp. tritici; test: Test F: wheat leaf rust, preventive spray on wheat seedlings; details: 40 ppm test suspension sprayed to run-off on wheat seedlings, inoculated the following day; 100 = 100% disease control, 0 = no control; triplicate, averaged
Procedure: as §1
as §3, with “Puccinia recondite f. sp. tritici” for “Septoria nodorum”, “wheat leaf rust)” for “Septoria glume blotch)”, “20°” for “24°”, “24” for “48”, “6” for “9”
as §2

[2] = test system: Blumeria graminis f. sp. tritici; test: Test G: wheat powdery mildew, preventive spray on wheat seedlings; details: 40 ppm test suspension sprayed to run-off on wheat seedlings, inoculated with spore dust the following day; 100 = 100% disease control, 0 = no control; triplicate, averaged
Procedure: as §1
The test suspension was sprayed to the point of run-off on wheat seedlings. The following day the seedlings were inoculated with a spore dust of Blumeria graminis f. sp. tritici (also known as Erysiphe graminis f. sp. tritici, the causal agent of wheat powdery mildew) and incubated in a growth chamber at 20° C. for 8 days, after which time visual disease ratings were made.
as §2

[3] = test system: Puccinia recondite f. sp. tritici; test: Test E: wheat leaf rust, spray after inoculation of wheat seedlings; details: 40 ppm test suspension sprayed on wheat seedlings after inoculation (24 h incubation, then 2 days in growth chamber); 100 = 100% disease control, 0 = no control; triplicate, averaged
Procedure: as §1
Wheat seedlings were inoculated with a spore suspension of Puccinia recondite f. sp. tritici (the causal agent of wheat leaf rust) and incubated in a saturated atmosphere at 20° C. for 24 h, and then moved to a growth chamber at 20° C. for 2 days. After 2 days, the test suspension was sprayed to the point of run-off on the wheat seedlings, and then the seedlings were moved back to the growth chamber at 20° C. for 4 days. Upon removal, visual disease ratings were made.
as §2

Row | SMILES | Test A rating (disease control) (Botrytis cinerea) [%] | Test B rating (disease control) (Alternaria solani) [%] | Test C rating (disease control) (Septoria nodorum) [%] | Test D rating (disease control) (Septoria tritici) [%] | Test F rating (disease control) [1] [%] | Test G rating (disease control) [2] [%] | Test E rating (disease control) [3] [%]
1 | Cc1nc(Br)n(Nc2ccc(Cl)cc2Cl)c1-c1ccc(F)cc1 [Compound 6] | 16 | 0 | 0 | 93 | 55 | 0 | –
2 | Fc1ccc(-c2c(C(Cl)Cl)nc(Cl)n2Nc2ccc(F)cc2Cl)c(F)c1 [Compound 12] | 0 | 0 | 0 | 89 | 86 | 73 | 0
3 | Cc1ncn(Nc2ccc(Cl)cc2Cl)c1-c1ccc(F)cc1 [Compound 3] | – | 0 | 0 | 99 | 41 | 0 | 0
4 | Cc1nc(Br)n(Nc2ccc(F)cc2F)c1-c1ccc(F)cc1F [Compound 10, 2-bromo-N,5-bis(2,4-difluorophenyl)-4-methyl-1H-imidazol-1-amine] | 99 | 40 | 0 | 100 | 100 | 96 | 7
5 | Fc1ccc(Nn2c(Br)nc(Br)c2-c2ccc(Cl)cc2Cl)c(F)c1 [Compound 14] | 0 | 0 | 0 | 0 | 0 | 0 | 0
6 | Cc1nc(Br)n(Nc2c(Cl)cc(Cl)cc2Br)c1-c1ccc(F)cc1F [Compound 8, N-(2-bromo-4,6-dichlorophenyl)-4-methyl-2-bromo-5-(2,4-difluorophenyl)-1H-imidazol-1-amine] | 99 | 9 | 0 | 100 | 100 | 98 | 19
7 | Fc1cc(F)c(Nn2c(Cl)nc(Cl)c2-c2ccc(Cl)cc2Cl)c(Cl)c1 [Compound 11, N-(2-chloro-4,6-difluorophenyl)-2,4-dichloro-5-(2,4-dichlorophenyl)-1H-imidazol-1-amine] | 0 | 0 | 0 | 0 | 0 | 52 | 0
8 | Cc1nc(Br)n(Nc2ccc(Cl)cc2Cl)c1-c1ccc(Cl)cc1 [Compound 5] | – | 0 | 0 | 99 | 9 | 0 | 0
9 | Cc1ncn(Nc2ccc(F)cc2Cl)c1-c1ccc(F)cc1F [Compound 1, N-(2-chloro-4-fluorophenyl)-5-(2,4-difluorophenyl)-4-methyl-1H-imidazol-1-amine] | 100 | 70 | 0 | 92 | 95 | 91 | –
10 | Fc1ccc(-c2c(CCl)nc(Cl)n2Nc2ccc(F)cc2Cl)c(F)c1 [Compound 13] | 66 | 0 | 0 | 97 | 95 | 98 | 0
11 | Cc1nc(Br)n(Nc2ccc(F)cc2Cl)c1-c1ccc(F)cc1F [Compound 2, 2-bromo-N-(2-chloro-4-fluorophenyl)-5-(2,4-difluorophenyl)-4-methyl-1H-imidazol-1-amine] | 99 | 0 | 60 | 100 | 99 | 100 | 30
12 | Cc1ncn(Nc2ccc(F)cc2F)c1-c1ccc(F)cc1F [Compound 9] | 87 | 0 | 0 | 79 | 14 | 0 | 36
13 | Cc1ncn(Nc2ccc(Cl)cc2Cl)c1-c1ccc(F)cc1F [Compound 7, 5-(2,4-difluorophenyl)-N-(2,4-dichlorophenyl)-4-methyl-1H-imidazol-1-amine] | 100 | 0 | 0 | 100 | 97 | 91 | 0
